Experimental data reported in patent US10590140B2, “Tetrahydropyrimidodiazepine and dihydropyridodiazepine compounds for treating pain and pain related conditions” (ESTEVE PHARMACEUTICALS, S.A., priority 2016, dated 2020).
Like-named read-outs stand apart in the source and are kept apart here.

Columns and labels:
[1] = biological target: human α2δ-1 subunit of Cav2.2 calcium channel (Homo sapiens (Human), UniProt P54289); experiment: Binding assay to human α2δ-1 subunit of Cav2.2 calcium channel ([3H]-Gabapentin); conditions: read-out: Ki (nM) α2δ-1
Procedure, shortened: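 Radioactivity on dried GF/C filters quantified by scintillation after filtration and three cold Tris-HCl (pH 7.4) washes. Incubation ran 60 min at 27° C with [3H]-gabapentin; 10 μM pregabalin gave nonspecific binding.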

[2] = biological target: human norepinephrine transporter (NET) (Homo sapiens (Human), UniProt P23975); experiment: Binding assay to human norepinephrine transporter (NET) ([3H]-Nisoxetin); conditions: Table 2, dual compounds; [3H]-Nisoxetin binding
Protocol: Binding Assay to Human Norepinephrine Transporter (NET).
Human norepinephrine transporter (NET) enriched membranes (5 μg) were incubated with 5 nM of radiolabeled [3H]-Nisoxetin in assay buffer containing 50 mM Tris-HCl, 120 mM NaCl, 5 mM KCl, pH 7.4.
NSB (non specific binding) was measured by adding 1 μM. After 60 min incubation at 4° C., binding reaction was terminated by filtering through Multiscreen GF/C (Millipore) presoaked in 0.5% polyethyleneimine in Vacuum Manifold Station, followed by 3 washes with ice-cold filtration buffer containing 50 mM Tris-HCl, 0.9% NaCl, pH 7.4.
Filter plates were dried at 60° C. for 1 hour and 30 μl of scintillation cocktail were added to each well before radioactivity reading.

[3] = Table 2, dual compounds, [3H]-Gabapentin binding
[4] = binding to α2δ-1, [3H]-Gabapentin

Chain of human α2δ-1 subunit of Cav2.2 calcium channel (P54289 25-1103): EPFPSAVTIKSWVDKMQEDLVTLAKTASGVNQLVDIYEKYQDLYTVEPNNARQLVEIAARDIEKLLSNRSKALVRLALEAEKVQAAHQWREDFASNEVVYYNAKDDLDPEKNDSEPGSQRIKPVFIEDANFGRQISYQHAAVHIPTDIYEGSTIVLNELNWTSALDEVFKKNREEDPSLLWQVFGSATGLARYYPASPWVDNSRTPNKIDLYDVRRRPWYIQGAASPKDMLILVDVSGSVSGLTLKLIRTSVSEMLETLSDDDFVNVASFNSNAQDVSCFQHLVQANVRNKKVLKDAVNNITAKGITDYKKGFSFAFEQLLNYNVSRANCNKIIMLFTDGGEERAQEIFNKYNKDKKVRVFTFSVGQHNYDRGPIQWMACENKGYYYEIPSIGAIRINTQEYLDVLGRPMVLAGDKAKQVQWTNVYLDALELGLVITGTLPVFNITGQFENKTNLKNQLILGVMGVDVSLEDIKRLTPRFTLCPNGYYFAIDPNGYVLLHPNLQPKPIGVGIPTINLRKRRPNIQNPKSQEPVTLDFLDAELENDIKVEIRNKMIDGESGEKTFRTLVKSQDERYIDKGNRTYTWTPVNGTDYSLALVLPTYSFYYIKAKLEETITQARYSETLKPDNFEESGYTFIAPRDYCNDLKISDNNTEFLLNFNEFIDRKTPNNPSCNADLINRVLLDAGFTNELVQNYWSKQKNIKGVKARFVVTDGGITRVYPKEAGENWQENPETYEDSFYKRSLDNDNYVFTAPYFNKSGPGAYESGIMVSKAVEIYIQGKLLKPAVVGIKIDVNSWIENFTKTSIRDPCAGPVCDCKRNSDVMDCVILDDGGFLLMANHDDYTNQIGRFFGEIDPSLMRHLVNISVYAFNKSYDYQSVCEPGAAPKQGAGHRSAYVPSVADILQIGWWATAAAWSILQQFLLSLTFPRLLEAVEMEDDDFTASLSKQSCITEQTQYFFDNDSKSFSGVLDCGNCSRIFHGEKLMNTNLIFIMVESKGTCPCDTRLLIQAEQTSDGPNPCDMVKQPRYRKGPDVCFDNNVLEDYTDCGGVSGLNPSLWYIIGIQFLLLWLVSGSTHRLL
Chain of human norepinephrine transporter (NET) (P23975 whole entry): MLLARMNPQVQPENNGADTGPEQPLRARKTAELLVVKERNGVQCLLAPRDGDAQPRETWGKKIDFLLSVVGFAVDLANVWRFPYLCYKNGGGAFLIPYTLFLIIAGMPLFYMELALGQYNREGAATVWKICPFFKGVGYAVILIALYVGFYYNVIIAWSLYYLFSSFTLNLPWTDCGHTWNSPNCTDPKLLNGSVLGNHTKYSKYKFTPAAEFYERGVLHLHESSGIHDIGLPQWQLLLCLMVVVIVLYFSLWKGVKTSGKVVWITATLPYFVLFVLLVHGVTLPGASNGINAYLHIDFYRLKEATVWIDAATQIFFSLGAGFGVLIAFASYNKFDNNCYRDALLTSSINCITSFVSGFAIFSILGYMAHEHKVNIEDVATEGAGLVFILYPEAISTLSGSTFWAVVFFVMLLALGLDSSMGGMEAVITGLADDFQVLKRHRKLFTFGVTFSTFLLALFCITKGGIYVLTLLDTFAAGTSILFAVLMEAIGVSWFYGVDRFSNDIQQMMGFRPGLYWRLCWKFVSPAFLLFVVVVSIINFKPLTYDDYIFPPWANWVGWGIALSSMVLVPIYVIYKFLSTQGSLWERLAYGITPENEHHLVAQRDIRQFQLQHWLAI

SMILES	Ki [1, 3]	Ki [1, 4]	Ki [2]
CNCCC(Oc1cccc(N2CCN(C)c3nc(SC)ncc3C2=O)c1)c1ccccc1 (stereo not shown) [Example 151, 9-methyl-6-(3-(3-(methylamino)-1-phenylpropoxy)phenyl)-2-(methylthio)-6,7,8,9-tetrahydro-5H-pyrimido[4,5-e][1,4]diazepin-5-one]	500 to 3000 nM	500 to 3000 nM	< 100 nM
CNCC[C@@H](Oc1cccc(N2CCN(C)c3nc(SC)ncc3C2=O)c1)c1ccccc1 [Example 152, (R)-9-methyl-6-(3-(3-(methylamino)-1-phenylpropoxy)phenyl)-2-(methylthio)-6,7,8,9-tetrahydro-5H-pyrimido[4,5-e][1,4]diazepin-5-one]	500 to 3000 nM	500 to 3000 nM	100 to 500 nM
CNCC[C@H](Oc1cccc(N2CCN(C)c3nc(SC)ncc3C2=O)c1)c1ccccc1 [Example 153, (S)-9-methyl-6-(3-(3-(methylamino)-1-phenylpropoxy)phenyl)-2-(methylthio)-6,7,8,9-tetrahydro-5H-pyrimido[4,5-e][1,4]diazepin-5-one]	> 3000 nM	> 3000 nM	< 100 nM
CCNc1ncc2c(n1)N(C)CCN(c1cccc(OC(CNC)c3ccccc3)c1)C2=O (stereo not shown) [Example 154, 2-(ethylamino)-9-methyl-6-(3-(2-(methylamino)-1-phenylethoxy)phenyl)-6,7,8,9-tetrahydro-5H-pyrimido[4,5-e][1,4]diazepin-5-one]	500 to 3000 nM	500 to 3000 nM	100 to 500 nM
CCNc1ncc2c(n1)N(C)CCN(c1ccc(OC(CNC)c3ccccc3)cc1)C2=O (stereo not shown) [Example 159, 2-(ethylamino)-9-methyl-6-(4-(2-(methylamino)-1-phenylethoxy)phenyl)-6,7,8,9-tetrahydro-5H-pyrimido[4,5-e][1,4]diazepin-5-one]	> 3000 nM	> 3000 nM	> 1000 nM
CNCCC(OCc1cccc(N2CCN(C)c3nc(SC)ncc3C2=O)c1)c1ccccc1 (stereo not shown) [Example 163, 9-methyl-6-(3-((3-(methylamino)-1-phenylpropoxy)methyl)phenyl)-2-(methylthio)-6,7,8,9-tetrahydro-5H-pyrimido[4,5-e][1,4]diazepin-5-one]	500 to 3000 nM	500 to 3000 nM	100 to 500 nM
CNCC[C@@H](OCc1cccc(N2CCN(C)c3nc(SC)ncc3C2=O)c1)c1ccccc1 [Example 164, (R)-9-methyl-6-(3-((3-(methylamino)-1-phenylpropoxy)methyl)phenyl)-2-(methylthio)-6,7,8,9-tetrahydro-5H-pyrimido[4,5-e][1,4]diazepin-5-one]	100 to 500 nM	100 to 500 nM	100 to 500 nM
CNCC[C@H](OCc1cccc(N2CCN(C)c3nc(SC)ncc3C2=O)c1)c1ccccc1 [Example 165, (S)-9-methyl-6-(3-((3-(methylamino)-1-phenylpropoxy)methyl)phenyl)-2-(methylthio)-6,7,8,9-tetrahydro-5H-pyrimido[4,5-e][1,4]diazepin-5-one]	> 3000 nM	> 3000 nM	100 to 500 nM
CCNc1ncc2c(n1)N(C)CCN(c1cccc(COCC(NC)c3ccccc3)c1)C2=O (stereo not shown) [Example 166, 2-(ethylamino)-9-methyl-6-(3-((2-(methylamino)-2-phenylethoxy)methyl)phenyl)-6,7,8,9-tetrahydro-5H-pyrimido[4,5-e][1,4]diazepin-5-one]	500 to 3000 nM	> 3000 nM	500 to 1000 nM
CNC(COCc1cccc(N2CCN(C)c3nc(SC)ncc3C2=O)c1)c1ccccc1 (stereo not shown) [Example 167, 9-methyl-6-(3-((2-(methylamino)-2-phenylethoxy)methyl)phenyl)-2-(methylthio)-6,7,8,9-tetrahydro-5H-pyrimido[4,5-e][1,4]diazepin-5-one]	> 3000 nM	> 3000 nM	> 1000 nM
CCNc1ncc2c(n1)N(C)CCN(c1cccc(C(C)(C)CNC)c1)C2=O [Example 173, 2-(ethylamino)-9-methyl-6-(3-(2-methyl-1-(methylamino)propan-2-yl)phenyl)-6,7,8,9-tetrahydro-5H-pyrimido[4,5-e][1,4]diazepin-5-one]	500 to 3000 nM	500 to 3000 nM	> 1000 nM
CCNc1ncc2c(n1)N(C)CCN(c1cccc(COC3(c4ccccc4)CCNCC3)c1)C2=O [Example 176, 2-(ethylamino)-9-methyl-6-(3-(((4-phenylpiperidin-4-yl)oxy)methyl)phenyl)-6,7,8,9-tetrahydro-5H-pyrimido[4,5-e][1,4]diazepin-5-one]	500 to 3000 nM	500 to 3000 nM	> 1000 nM
CSc1ncc2c(n1)N(C)CCN(c1cccc(COC3(c4ccccc4)CCNCC3)c1)C2=O [Example 179, 9-methyl-2-(methylthio)-6-(3-(((4-phenylpiperidin-4-yl)oxy)methyl)phenyl)-6,7,8,9-tetrahydro-5H-pyrimido[4,5-e][1,4]diazepin-5-one]	> 3000 nM	> 3000 nM	> 1000 nM
CCNc1ncc2c(n1)N(C)CCN(c1cccc(OC(CCNC)c3ccccn3)c1)C2=O (stereo not shown) [Example 193, 2-(ethylamino)-9-methyl-6-(3-(3-(methylamino)-1-(pyridin-2-yl)propoxy)phenyl)-6,7,8,9-tetrahydro-5H-pyrimido[4,5-e][1,4]diazepin-5-one]	500 to 3000 nM	500 to 3000 nM	> 1000 nM
CCNc1ncc2c(n1)N(C)CCN(c1cccc(OC(CCNC)c3cccnc3)c1)C2=O (stereo not shown) [Example 194, 2-(ethylamino)-9-methyl-6-(3-(3-(methylamino)-1-(pyridin-3-yl)propoxy)phenyl)-6,7,8,9-tetrahydro-5H-pyrimido[4,5-e][1,4]diazepin-5-one]	500 to 3000 nM	500 to 3000 nM	> 1000 nM
CNCC[C@@H](OCc1cccc(N2CCN(C)c3nc(N)ncc3C2=O)c1)c1ccccc1 [Example 195, (R)-2-amino-9-methyl-6-(3-((3-(methylamino)-1-phenylpropoxy)methyl)phenyl)-6,7,8,9-tetrahydro-5H-pyrimido[4,5-e][1,4]diazepin-5-one]	500 to 3000 nM	100 to 500 nM	500 to 1000 nM

Further lines, results first:

Ki [1, 3]	Ki [1, 4]	Ki [2]	SMILES
500 to 3000 nM	500 to 3000 nM	500 to 1000 nM	CNCC[C@@H](OCc1cccc(N2CCN(C)c3nc(N(C)C)ncc3C2=O)c1)c1ccccc1 [Example 196, (R)-2-(dimethylamino)-9-methyl-6-(3-((3-(methylamino)-1-phenylpropoxy)methyl)phenyl)-6,7,8,9-tetrahydro-5H-pyrimido[4,5-e][1,4]diazepin-5-one]
500 to 3000 nM	500 to 3000 nM	500 to 1000 nM	CNCC[C@@H](OCc1cccc(N2CCN(C)c3nc(NC)ncc3C2=O)c1)c1ccccc1 [Example 197, (R)-9-methyl-2-(methylamino)-6-(3-((3-(methylamino)-1-phenylpropoxy)methyl)phenyl)-6,7,8,9-tetrahydro-5H-pyrimido[4,5-e][1,4]diazepin-5-one]
500 to 3000 nM	500 to 3000 nM	100 to 500 nM	CCNc1cc2c(cn1)C(=O)N(c1cccc(OC(CCNC)c3ccccc3)c1)CCN2C (stereo not shown) [Example 198, 8-(ethylamino)-1-methyl-4-(3-(3-(methylamino)-1-phenylpropoxy)phenyl)-1,2,3,4-tetrahydro-5H-pyrido[4,3-e][1,4]diazepin-5-one]
500 to 3000 nM	500 to 3000 nM	> 1000 nM	CCNc1cc2c(cn1)C(=O)N(c1cccc(COC(CCNC)c3ccccc3)c1)CCN2C (stereo not shown) [Example 199, 8-(ethylamino)-1-methyl-4-(3-((3-(methylamino)-1-phenylpropoxy)methyl)phenyl)-1,2,3,4-tetrahydro-5H-pyrido[4,3-e][1,4]diazepin-5-one]
> 3000 nM	> 3000 nM	< 100 nM	CCNc1ncc2c(n1)N(C)CCN(Cc1ccc(OC(CNC)c3ccccc3)cc1)C2=O (stereo not shown) [Example 201, 2-(ethylamino)-9-methyl-6-(4-(2-(methylamino)-1-phenylethoxy)benzyl)-6,7,8,9-tetrahydro-5H-pyrimido[4,5-e][1,4]diazepin-5-one]
500 to 3000 nM	500 to 3000 nM	500 to 1000 nM	CCNc1ncc2c(n1)N(C)CCN(c1cccc(CO[C@H](CCNC)c3ccccc3)c1)C2 [Example 203, (R)—N-ethyl-9-methyl-6-(3-((3-(methylamino)-1-phenylpropoxy)methyl)phenyl)-6,7,8,9-tetrahydro-5H-pyrimido[4,5-e][1,4]diazepin-2-amine]
500 to 3000 nM	500 to 3000 nM	100 to 500 nM	CNCC[C@@H](OCc1cccc(N2CCN(C)c3nc(OC)ncc3C2=O)c1)c1ccccc1 [Example 204, (R)-2-methoxy-9-methyl-6-(3-((3-(methylamino)-1-phenylpropoxy)methyl)phenyl)-6,7,8,9-tetrahydro-5H-pyrimido[4,5-e][1,4]diazepin-5-one]
–	100 to 500 nM	–	CCNc1ncc2c(n1)N(C)CCN(c1cccc(-c3nnc(CN4CCC(c5ccccc5)(N(C)C)CC4)o3)c1)C2=O [Example 441, 6-(3-(5-((4-(dimethylamino)-4-phenylpiperidin-1-yl)methyl)-1,3,4-oxadiazol-2-yl)phenyl)-2-(ethylamino)-9-methyl-6,7,8,9-tetrahydro-5H-pyrimido[4,5-e][1,4]diazepin-5-one]
